Data reported in patent publication US12428406B2 (PMV Pharmaceuticals, Inc., priority 2019, dated 2025).

What follows are molecules tested against T1, p53 Y220C (Homo sapiens, UniProt P04637, Y220C) (assay: In vitro DNA binding activity assay (HTRF / TR-FRET): stabilization of p53 Y220C and increase of its DNA binding activity). Conditions: recombinant His-tagged p53 Y220C DNA binding domain (aa 94-312), biotin-labeled consensus DNA, incubated at 27° C. or 29° C. for 60 min.
T1 construct: The recombinant protein was a truncation mutant containing only amino acids 94-312 of p53; made in house; host or cells: E. coli
T1 sequence (P04637 94-312, change not shown): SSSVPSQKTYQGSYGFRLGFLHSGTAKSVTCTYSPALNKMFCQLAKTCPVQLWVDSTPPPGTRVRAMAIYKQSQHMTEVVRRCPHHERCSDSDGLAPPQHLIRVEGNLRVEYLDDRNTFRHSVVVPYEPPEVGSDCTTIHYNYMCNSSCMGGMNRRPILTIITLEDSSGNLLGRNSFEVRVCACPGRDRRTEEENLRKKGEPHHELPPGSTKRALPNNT
Type: biochemical
Procedure, shortened: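 Test compounds, diluted 3-fold in DMSO from 4.5 mM stocks, were incubated with bacterially expressed His-tagged p53 Y220C at room temperature for 15 min, and after a further step for 20 min. DNA binding was detected by time-resolved FRET between APC and europium labels. SC150 marks the concentration increasing binding by 50%.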
For `CN1CC[C@@H](Nc2cccc3c2cc(C#CCO)n3CC(F)(F)F)[C@@H](F)C1` [Compound 895A, 3-(4-(((3S,4R)-3-fluoro-1-methylpiperidin-4-yl)amino)-1-(2,2,2-trifluoroethyl)-1H-indol-2-yl)prop-2-yn-1-ol], the “SC150 (concentration of the compound required to increase the DNA binding activity by 50%)” value was “+++ (+++ = 0.1 μM ≤ SC150 < 0.2 μM)”.
For `COc1cc(C(N)=O)ccc1NCC#Cc1cc2c(N[C@H]3CCNC[C@H]3F)cccc2n1CC(F)(F)F` [Compound 868A, 4-{[3-(4-{[(3R,4S)-3-fluoropiperidin-4-yl]amino}-1-(2,2,2-trifluoroethyl)-1H-indol-2-yl)prop-2-yn-1-yl]amino}-3-methoxybenzamide], the “SC150 (concentration of the compound required to increase the DNA binding activity by 50%)” value was “+ (+ = 0 μM ≤ SC150 < 0.05 μM)”.
`COCCOc1cc(S(C)(=O)=O)ccc1NCC#Cc1cc2c(NC3CCN(CC(O)COC)CC3)cccc2n1CC(F)(F)F` (stereo not shown) [Compound 637A, 1-(4-{[2-(3-{[4-methanesulfonyl-2-(2-methoxyethoxy)phenyl]amino}prop-1-yn-1-yl)-1-(2,2,2-trifluoroethyl)-1H-indol-4-yl]amino}piperidin-1-yl)-3-methoxypropan-2-ol] was tested, and the “SC150 (concentration of the compound required to increase the DNA binding activity by 50%)” value was “+ (+ = 0 μM ≤ SC150 < 0.05 μM)”.
In the case of `CNC(=O)c1ccc(NCC#Cc2cc3c(NC4CCN(C)CC4)cccc3n2CC(F)(F)F)s1` [Compound 524A, N-methyl-5-((3-(4-((1-methylpiperidin-4-yl)amino)-1-(2,2,2-trifluoroethyl)-1H-indol-2-yl)prop-2-yn-1-yl)amino)thiophene-2-carboxamide], the “SC150 (concentration of the compound required to increase the DNA binding activity by 50%)” value is reported as “+ (+ = 0 μM ≤ SC150 < 0.05 μM)”.
In the case of `COc1cc(S(C)(=O)=O)ccc1NCC#Cc1cc2c(N[C@H]3CCN(C)C[C@H]3F)cc(F)cc2n1CC(F)(F)F` (racemic) [Compound 836A, rac-6-fluoro-N-[(3R,4S)-3-fluoro-1-methylpiperidin-4-yl]-2-{3-[(4-methanesulfonyl-2-methoxyphenyl)amino]prop-1-yn-1-yl}-1-(2,2,2-trifluoroethyl)-1H-indol-4-amine], the “SC150 (concentration of the compound required to increase the DNA binding activity by 50%)” value is reported as “+ (+ = 0 μM ≤ SC150 < 0.05 μM)”.
With `COc1cc(S(C)(=O)=O)ccc1NCC#Cc1cc2c(N[C@H]3CC[C@@H](N4CCC5(CC4)COC5)CC3)cccc2n1CC(F)(F)F` [Compound 374A, 2-{3-[(4-methane-sulfonyl-2-methoxy-phenyl)amino]prop-1-yn-1-yl}-N-[(1S,4S)-4-{2-oxa-7-azaspiro[3.5]nonan-7-yl}cyclohexyl]-1-(2,2,2-trifluoroethyl)-1H-indol-4-amine] the “SC150 (concentration of the compound required to increase the DNA binding activity by 50%)” value was “+ (+ = 0 μM ≤ SC150 < 0.05 μM)”.
In the case of `CNC(=O)c1ccc(NCC#Cc2cc3c(N[C@H]4CCN(C)C[C@H]4F)cccc3n2CC(F)(F)F)c(OC)c1` [Compound 805A, 4-{[3-(4-{[(3R,4S)-3-fluoro-1-methylpiperidin-4-yl]amino}-1-(2,2,2-trifluoroethyl)-1H-indol-2-yl)prop-2-yn-1-yl]amino}-3-methoxy-N-methylbenzamide], the “SC150 (concentration of the compound required to increase the DNA binding activity by 50%)” value is reported as “+ (+ = 0 μM ≤ SC150 < 0.05 μM)”.
With `CS(=O)(=O)c1ccc(NCC#Cc2cc3c(N[C@H]4CC[C@@H](N5CC6(COC6)C5)CC4)cccc3n2CC(F)(F)F)c(OCCO)c1` [Compound 226A, 2-(5-methanesulfonyl-2-{[3-(4-{[(1S,4S)-4-{2-oxa-6-azaspiro[3.3]heptan-6-yl}cyclo-hexyl]amino}-1-(2,2,2-trifluoroethyl)-1H-indol-2-yl)prop-2-yn-1-yl]amino}phenoxy)ethan-1-ol] the “SC150 (concentration of the compound required to increase the DNA binding activity by 50%)” value was “+ (+ = 0 μM ≤ SC150 < 0.05 μM)”.
For `COc1cc(S(N)(=O)=O)ccc1NCC#Cc1cc2c(N[C@H]3CC[C@@H](N(CCO)CCO)CC3)cccc2n1CC(F)(F)F` [Compound 45A, 3-methoxy-4-{[3-(4-{[(1S,4S)-4-[bis(2-hydroxyethyl)amino]cyclohexyl]amino}-1-(2,2,2-trifluoroethyl)-1H-indol-2-yl)prop-2-yn-1-yl]amino}benzene-1-sulfonamide], the “SC150 (concentration of the compound required to increase the DNA binding activity by 50%)” value was “+ (+ = 0 μM ≤ SC150 < 0.05 μM)”.
With `COCC(O)CN1CCC(Nc2cccc3c2cc(C#CCNc2ccc(S(=O)(=O)C4CC4)cc2OC)n3CC(F)(F)F)CC1` (stereo not shown) [Compound 685A, 1-(4-{[2-(3-{[4-(cyclopropanesulfonyl)-2-methoxyphenyl]amino}prop-1-yn-1-yl)-1-(2,2,2-trifluoroethyl)-1H-indol-4-yl]amino}piperidin-1-yl)-3-methoxypropan-2-ol] the “SC150 (concentration of the compound required to increase the DNA binding activity by 50%)” value was “+ (+ = 0 μM ≤ SC150 < 0.05 μM)”.
`COc1cc(C(=O)O)ccc1NCC#Cc1cc2c(N[C@@H]3CCN(C(C)(C)C)C[C@@H]3F)cccc2n1CC(F)(F)F` [Compound 1070A, 4-{[3-(4-{[(3S,4R)-1-tert-butyl-3-fluoropiperidin-4-yl]amino}-1-(2,2,2-trifluoroethyl)-1H-indol-2-yl)prop-2-yn-1-yl]amino}-3-methoxybenzoic acid] was tested, and the “SC150 (concentration of the compound required to increase the DNA binding activity by 50%)” value was “+ (+ = 0 μM ≤ SC150 < 0.05 μM)”.
`COc1cc(C(=O)N2CCOCC2)ccc1NCC#Cc1cc2c(N[C@@H]3CCN(C)C[C@@H]3F)cccc2n1CC(F)(F)F` [Compound 909A] was tested, and the “SC150 (concentration of the compound required to increase the DNA binding activity by 50%)” value was “+ (+ = 0 μM ≤ SC150 < 0.05 μM)”.
For `COc1cc(S(=O)(=O)O)ccc1NCC#Cc1cc2c(N[C@@H]3CCN(C)C[C@@H]3F)cccc2n1CC(F)(F)F` [Compound 931A, 4-{[3-(4-{[(3S,4R)-3-fluoro-1-methylpiperidin-4-yl]amino}-1-(2,2,2-trifluoroethyl)-1H-indol-2-yl)prop-2-yn-1-yl]amino}-3-methoxybenzene-1-sulfonic acid], the “SC150 (concentration of the compound required to increase the DNA binding activity by 50%)” value was “+ (+ = 0 μM ≤ SC150 < 0.05 μM)”.
With `COc1cc(S(=O)(=O)N(C)C)ccc1NCC#Cc1cc2c(NC3CCN(C)CC3)cccc2n1CC(F)(F)F` [Compound 473A, 3-methoxy-N,N-dimethyl-4-[(3-{4-[(1-methylpiperidin-4-yl)amino]-1-(2,2,2-trifluoroethyl)-1H-indol-2-yl}prop-2-yn-1-yl)amino]benzene-1-sulfonamide] the “SC150 (concentration of the compound required to increase the DNA binding activity by 50%)” value was “+ (+ = 0 μM ≤ SC150 < 0.05 μM)”.
In the case of `COc1cc(S(N)(=O)=O)ccc1NCC#Cc1cc2c(N[C@@H]3C[C@@H](C)O[C@@H](C)C3)cccc2n1CC(F)(F)F` [Compound 1031A, 3-methoxy-4-{[3-(4-{[(2R,4S,6S)-2,6-dimethyloxan-4-yl]amino}-1-(2,2,2-trifluoroethyl)-1H-indol-2-yl)prop-2-yn-1-yl]amino}benzene-1-sulfonamide], the “SC150 (concentration of the compound required to increase the DNA binding activity by 50%)” value is reported as “+ (+ = 0 μM ≤ SC150 < 0.05 μM)”.
`CNC(=O)c1ccc(NCC#Cc2cc3c(NC4CCN(CC(O)COC)CC4)cccc3n2CC(F)(F)F)c(OCC#N)c1` (stereo not shown) [Compound 654A, 3-(cyanomethoxy)-4-{[3-(4-{[1-(2-hydroxy-3-methoxypropyl)piperidin-4-yl]amino}-1-(2,2,2-trifluoroethyl)-1H-indol-2-yl)prop-2-yn-1-yl]amino}-N-methylbenzamide] was tested, and the “SC150 (concentration of the compound required to increase the DNA binding activity by 50%)” value was “+ (+ = 0 μM ≤ SC150 < 0.05 μM)”.
In the case of `COc1cc(C(N)=O)ccc1NCC#Cc1cc2c(N[C@H]3CC[C@H](N(C)C)CC3)cccc2n1CC(F)(F)F` [Compound 73A, 3-methoxy-4-{[3-(4-{[(1R,4R)-4-(dimethyl-amino)cyclohexyl]amino}-1-(2,2,2-trifluoroethyl)-1H-indol-2-yl)prop-2-yn-1-yl]amino}benzamide], the “SC150 (concentration of the compound required to increase the DNA binding activity by 50%)” value is reported as “+ (+ = 0 μM ≤ SC150 < 0.05 μM)”.
With `CCC(=O)N(C)S(=O)(=O)c1ccc(NCC#Cc2cc3c(NC4CCN(CC(O)COC)CC4)cccc3n2CC(F)(F)F)c(OC)c1` (stereo not shown) [Compound 624A, N-(4-{[3-(4-{[1-(2-hydroxy-3-methoxypropyl)piperidin-4-yl]amino}-1-(2,2,2-trifluoroethyl)-1H-indol-2-yl)prop-2-yn-1-yl]amino}-3-methoxybenzenesulfonyl)-N-methylpropanamide] the “SC150 (concentration of the compound required to increase the DNA binding activity by 50%)” value was “+ (+ = 0 μM ≤ SC150 < 0.05 μM)”.
In the case of `COc1cc(S(C)(=O)=O)ccc1NCC#Cc1cc2c(NC(=O)NC3CCN(C)CC3)cccc2n1CC(F)(F)F` [Compound 6A, 3-(2-{3-[(4-methanesulfonyl-2-methoxyphenyl)amino]prop-1-yn-1-yl}-1-(2,2,2-trifluoroethyl)-1H-indol-4-yl)-1-(1-methylpiperidin-4-yl)urea], the “SC150 (concentration of the compound required to increase the DNA binding activity by 50%)” value is reported as “++++ (++++ = 0.2 μM ≤ SC150 < 1 μM)”.
With `CNC(=O)c1ccc(NCC#Cc2cc3c(NC4CCS(=O)(=O)CC4)cccc3n2CC(F)(F)F)c(OC)c1` [Compound 1049A, 4-[(3-{4-[(1,1-dioxo-1λ^6-thian-4-yl)amino]-1-(2,2,2-trifluoroethyl)-1H-indol-2-yl}prop-2-yn-1-yl)amino]-3-methoxy-N-methylbenzamide] the “SC150 (concentration of the compound required to increase the DNA binding activity by 50%)” value was “+ (+ = 0 μM ≤ SC150 < 0.05 μM)”.
`COC(=O)CC[C@H](NC(=O)c1ccc(NCC#Cc2cc3c(N[C@@H]4CCN(C)C[C@@H]4F)cccc3n2CC(F)(F)F)c(OC)c1)C(=O)OC` [Compound 932A, 1,5-dimethyl (2S)-2-[(4-{[3-(4-{[(3S,4R)-3-fluoro-1-methylpiperidin-4-yl]amino}-1-(2,2,2-trifluoroethyl)-1H-indol-2-yl)prop-2-yn-1-yl]amino}-3-methoxyphenyl)formamido]pentanedioate] was tested, and the “SC150 (concentration of the compound required to increase the DNA binding activity by 50%)” value was “+ (+ = 0 μM ≤ SC150 < 0.05 μM)”.
With `COc1cc(S(=O)(=O)N(C)C)ccc1NCC#Cc1cc2c(N[C@H]3CC[C@H](N(C)C)CC3)cccc2n1CC(F)(F)F` [Compound 127A, 3-methoxy-N,N-dimethyl-4-{[3-(4-{[(1R,4R)-4-(dimethylamino)cyclohexyl]amino}-1-(2,2,2-trifluoroethyl)-1H-indol-2-yl)prop-2-yn-1-yl]amino}benzene-1-sulfonamide] the “SC150 (concentration of the compound required to increase the DNA binding activity by 50%)” value was “+ (+ = 0 μM ≤ SC150 < 0.05 μM)”.
